≈ marks a conversion by molar mass, not a printed value.
What was measured:
Assay type in all cases: cell-based
[1] = tested on: Aspergillus fumigatus NCPF7099; assay: Planktonic fungus growth: broth microdilution assay (NCPF7099); settings: Aspergillus fumigatus, NCPF7099, n = 2-3, read-out: MIC75 Values against Aspergillus fumigatus isolate NCPF7099
Procedure: This assay was conducted using a modified method published by EUCAST (Rodriguez-Tudela, et al., 2008). Spores of Aspergillus fumigatus (NCPF2010, NCPF7010 [methionine 220 mutation], NCPF7099 [Glycine G54 mutation]) from Public Health England, Wiltshire; TR34/L98H mutants from St Louis Hospital, Paris, France; TR46/Y121F/T289A mutants from University of Delhi, Delhi, India) were cultured in Sabouraud dextrose agar for 3 days. A stock spore suspension was prepared from a Sabouraud dextrose agar culture by washing with PBS-tween (10 mL; phosphate buffered saline containing 0.05% Tween-20, 100 U/mL penicillin and 100 U/mL streptomycin). The spore count was assessed using a Neubauer haemocytometer and then adjusted to 10^6 spores/mL with PBS. A working suspension of spores (2×10^5 spores/mL) was prepared in filter sterilised, BSA MOPS RPMI-1640 (50 mL; RPMI-1640 containing 2 mM L-glutamine, 0.5% BSA, 2% glucose, 0.165 M MOPS, buffered to pH 7 with NaOH).
For the assay, BSA MOPS RPMI-1640 (50 μL/well) was added throughout the 384-well plate (Catalogue number 353962, BD Falcon, Oxford, UK) first. Test compounds (0.5 μL DMSO solution) were then added in quadruplicate using an Integra VIAFLO 96 (Integra, Zizers, Switzerland), and mixed well using a plate mixer. Subsequently 50 μL of the working spore suspension prepared above was added to all wells except non-spore control wells. For non-spore control wells, BSA MOPS-RPMI solution (50 μL/well) was added instead. The plate was covered with a plastic lid, and incubated (35° C. with ambient air) for 48 hr. The OD of each well at 530 nm was determined using a multi-scanner (Clariostar: BMG, Buckinghamshire, UK). The percentage inhibition for each well was calculated and the MIC50, MIC75 and MIC90 values were calculated from the concentration-response curve generated for each test compound.

[2] = tested on: Candida glabrata AT0036583; assay: Fungus panel screening, CLSI broth microdilution; settings: Nakaseomyces glabratus; for MIC50: 50% inhibition by visual inspection (CLSI); for MIC: 100% inhibition by visual inspection (CLSI), read-out: MIC100
Procedure: (§1) Fungus panel screening was conducted by Eurofins Panlabs Inc. The MIC and MIC50 values of the test articles were determined following the guidelines of the CLSI: broth microdilution methods for yeast (CLSI M27-A2), (CLSI, 2002) and for filamentous fungi (CLSI M38-A), (CLSI, 2008).

[3] = tested on: Candida albicans 20183.073; assay: Fungus panel screening, CLSI broth microdilution; settings: for MIC50: 50% inhibition by visual inspection (CLSI); for MIC: 100% inhibition by visual inspection (CLSI), read-out: MIC100
Procedure: as §1

Candida krusei ATCC6258 = assay: Fungus panel screening, CLSI broth microdilution; settings: Pichia kudriavzevii; for MIC50: 50% inhibition by visual inspection (CLSI); for MIC: 100% inhibition by visual inspection (CLSI), read-out: MIC100
Procedure: as §1

[4] = tested on: Aureobasidium pullulans ATCC9348; assay: Fungus panel screening, CLSI broth microdilution; settings: for MIC50: 50% inhibition by visual inspection (CLSI); for MIC: 100% inhibition by visual inspection (CLSI), read-out: MIC100
Procedure: as §1

[5] = tested on: Cryptococcus neoformans ATCC24067; assay: Fungus panel screening, CLSI broth microdilution; settings: for MIC50: 50% inhibition by visual inspection (CLSI); for MIC: 100% inhibition by visual inspection (CLSI), read-out: MIC100
Procedure: as §1

[6] = tested on: Chaectomium globosum ATCC44699; assay: Fungus panel screening, CLSI broth microdilution; settings: for MIC50: 50% inhibition by visual inspection (CLSI); for MIC: 100% inhibition by visual inspection (CLSI), read-out: MIC100
Procedure: as §1

Candida glabrata 20197.1 = assay: Fungus panel screening, CLSI broth microdilution; settings: Nakaseomyces glabratus; for MIC50: 50% inhibition by visual inspection (CLSI); for MIC: 100% inhibition by visual inspection (CLSI), read-out: MIC100
Procedure: as §1

[7] = tested on: Candida albicans 20240.047; assay: Fungus panel screening, CLSI broth microdilution; settings: for MIC50: 50% inhibition by visual inspection (CLSI); for MIC: 100% inhibition by visual inspection (CLSI), read-out: MIC100
Procedure: as §1

[8] = tested on: Aspergillus flavus ATCC204304; assay: Fungus panel screening, CLSI broth microdilution; settings: for MIC50: 50% inhibition by visual inspection (CLSI); for MIC: 100% inhibition by visual inspection (CLSI), read-out: MIC100
Procedure: as §1

[9] = tested on: Trichophyton rubrum ATCC10218; assay: Fungus panel screening, CLSI broth microdilution; settings: for MIC: 100% inhibition by visual inspection (CLSI), read-out: MIC100; for MIC50: 50% inhibition by visual inspection (CLSI)
Procedure: as §1

[10] = tested on: Penicillium chrysogenum ATCC9480; assay: Fungus panel screening, CLSI broth microdilution; settings: for MIC50: 50% inhibition by visual inspection (CLSI); for MIC: 100% inhibition by visual inspection (CLSI), read-out: MIC100
Procedure: as §1

[11] = tested on: Rhizopus oryzae ATCC11145; assay: Fungus panel screening, CLSI broth microdilution; settings: Rhizopus arrhizus; for MIC50: 50% inhibition by visual inspection (CLSI); for MIC: 100% inhibition by visual inspection (CLSI), read-out: MIC100
Procedure: as §1

[12] = tested on: Fusarium graminerarum ATCC16106; assay: Fungus panel screening, CLSI broth microdilution; settings: for MIC50: 50% inhibition by visual inspection (CLSI); for MIC: 100% inhibition by visual inspection (CLSI), read-out: MIC100
Procedure: as §1

[13] = tested on: Candida albicans ATCC10231; assay: Fungus panel screening, CLSI broth microdilution; settings: for MIC50: 50% inhibition by visual inspection (CLSI); for MIC: 100% inhibition by visual inspection (CLSI), read-out: MIC100
Procedure: as §1

[14] = tested on: Aspergillus fumigatus NCPF7100; assay: Planktonic fungus growth: broth microdilution assay (NCPF7100); settings: Aspergillus fumigatus, NCPF7100, read-out: MIC75 Values against Aspergillus fumigatus isolate NCPF7100
[15] = tested on: Aspergillus fumigatus (NCPF2010); assay: Aspergillus fumigatus infection of BEAS2B bronchial epithelial cells (galactomannan); settings: NCPF2010, galactomannan in supernatant, 24 hr, n = 1-3, read-out: Infection of BEAS2B cells MIC50
Procedure: BEAS2B cells were seeded in 96-well plates (100 μL; 3×10^4 cells/well; Catalogue No 3596, Sigma Aldrich, Dorset, UK) in 10% FBS RPMI-1640 and were then incubated (37° C., 5% CO2) for one day before experimentation. Test compounds (0.5 μL DMSO solution) or vehicle (DMSO) were added to each well to give a final DMSO concentration of 0.5%. BEAS2B cells were incubated with test compounds for 1 hr (35° C., 5% CO2) before infection with Aspergillus fumigatus (20 uL; Public Health England) conidia suspension (0.5×10^5/mL in 10% FBS RPMI-1640). The plate was incubated for 24 hr (35° C., 5% CO2). Supernatant (50 uL) was collected and transferred to a PCR plate (Catalogue No L1402-9700, Starlab, Milton Keynes, UK), which was frozen (−20° C.) until use. After thawing, supernatant (5 μL) was diluted 1:20 by adding R7-PBS solution (95 μL; 1:4 R7 to PBS; Bio-Rad Laboratories, Redmond, Wash., USA). Galactomannan levels in these samples (50 μL) were measured using Platelia GM-EIA kits (Bio-Rad Laboratories, Redmond, Wash., USA). The percentage inhibition for each well was calculated and the IC50 value was calculated from the concentration-response curve generated for each test compound.

| Structure (SMILES) | MIC [1] [µM] | MIC50 [2] [µg/mL] | MIC [2] [µg/mL] | MIC50 [3] [µg/mL] | MIC [3] [µg/mL] | MIC50 (Candida krusei ATCC6258) [µg/mL] | MIC (Candida krusei ATCC6258) [µg/mL] | MIC50 [4] [µg/mL] | MIC [4] [µg/mL] | MIC50 [5] [µg/mL] | MIC [5] [µg/mL] | MIC50 [6] [µg/mL] | MIC [6] [µg/mL] | MIC50 (Candida glabrata 20197.1) [µg/mL] | MIC (Candida glabrata 20197.1) [µg/mL] | MIC50 [7] [µg/mL] | MIC [7] [µg/mL] | MIC50 [8] [µg/mL] | MIC [8] [µg/mL] | MIC [9] [µg/mL] | other results |
| --- | --- | --- | --- | --- | --- | --- | --- | --- | --- | --- | --- | --- | --- | --- | --- | --- | --- | --- | --- | --- | --- |
| Cc1cc(N2CCN(c3ccc(C(=O)N[C@H]4CCCC[C@@H]4O)cc3)CC2)ccc1OC[C@@H]1CO[C@@](Cn2cncn2)(c2ccc(F)cc2F)C1 [Compound (Ia), 4-(4-(4-(((3R,5R)-5-((1H-1,2,4-triazol-1-yl)methyl)-5-(2,4-difluorophenyl)tetrahydrofuran-3-yl)methoxy)-3-methylphenyl)piperazin-1-yl)-N-((1S,2S)-2-hydroxycyclohexyl) benzamide] | 0.01 (≈ 0.00687 µg/mL) | 0.25 (≈ 0.364 µM) | > 2 | 0.125 (≈ 0.182 µM) | > 2 | 0.25 (≈ 0.364 µM) | 0.25 (≈ 0.364 µM) | 0.25 (≈ 0.364 µM) | 1 (≈ 1.46 µM) | 0.016 (≈ 0.0233 µM) | 0.063 (≈ 0.0917 µM) | 0.031 (≈ 0.0451 µM) | 0.13 (≈ 0.189 µM) | 0.0078 (≈ 0.0114 µM) | > 2 | 0.016 (≈ 0.0233 µM) | > 2 | 0.13 (≈ 0.189 µM) | 0.13 (≈ 0.189 µM) | 0.031 (≈ 0.0451 µM) | MIC50 [10]: 0.063 µg/mL (≈ 0.0917 µM); MIC [10]: 0.13 µg/mL (≈ 0.189 µM); MIC50 [11]: 0.25 µg/mL (≈ 0.364 µM); MIC [11]: 0.5 µg/mL (≈ 0.728 µM); MIC50 [12]: 0.13 µg/mL (≈ 0.189 µM); MIC [12]: 0.5 µg/mL (≈ 0.728 µM); MIC50 [13]: 0.25 µg/mL (≈ 0.364 µM); MIC [13]: > 2 µg/mL; MIC [14]: 0.0127 µM (≈ 0.00872 µg/mL); MIC50 [15]: 0.00635 µM (≈ 0.00436 µg/mL) |
| CC[C@@H]([C@H](C)O)n1ncn(-c2ccc(N3CCN(c4ccc(OC[C@@H]5CO[C@@](Cn6cncn6)(c6ccc(F)cc6F)C5)cc4)CC3)cc2)c1=O [Posaconazole, reference compound] | 0.167 (≈ 0.117 µg/mL) | 0.5 (≈ 0.713 µM) | > 8 | 0.25 (≈ 0.357 µM) | > 8 | 0.13 (≈ 0.186 µM) | 0.25 (≈ 0.357 µM) | 0.25 (≈ 0.357 µM) | 1 (≈ 1.43 µM) | 0.016 (≈ 0.0228 µM) | 0.25 (≈ 0.357 µM) | 0.13 (≈ 0.186 µM) | 0.25 (≈ 0.357 µM) | 0.031 (≈ 0.0442 µM) | > 8 | 0.031 (≈ 0.0442 µM) | > 8 | 0.063 (≈ 0.0899 µM) | 0.13 (≈ 0.186 µM) | 0.031 (≈ 0.0442 µM) | MIC50 [9]: < 0.008 µg/mL; MIC50 [10]: 0.063 µg/mL (≈ 0.0899 µM); MIC [10]: 0.13 µg/mL (≈ 0.186 µM); MIC50 [11]: 0.13 µg/mL (≈ 0.186 µM); MIC [11]: > 8 µg/mL; MIC50 [12]: > 8 µg/mL; MIC [12]: > 8 µg/mL; MIC50 [13]: 0.13 µg/mL (≈ 0.186 µM); MIC [13]: > 8 µg/mL; MIC [14]: 0.0597 µM (≈ 0.0418 µg/mL); MIC50 [15]: 0.0116 µM (≈ 0.00813 µg/mL) |
| C[C@@H](c1ncncc1F)[C@](O)(Cn1cncn1)c1ccc(F)cc1F [Voriconazole] | 0.113 (≈ 0.0395 µg/mL) | 0.25 (≈ 0.716 µM) | > 8 | 4 (≈ 11.5 µM) | > 8 | 0.25 (≈ 0.716 µM) | 1 (≈ 2.86 µM) | > 8 | > 8 | 0.016 (≈ 0.0458 µM) | 1 (≈ 2.86 µM) | 0.5 (≈ 1.43 µM) | 1 (≈ 2.86 µM) | 0.031 (≈ 0.0887 µM) | > 8 | 0.031 (≈ 0.0887 µM) | > 8 | 1 (≈ 2.86 µM) | 2 (≈ 5.73 µM) | 0.063 (≈ 0.18 µM) | MIC50 [9]: < 0.008 µg/mL; MIC50 [10]: 1 µg/mL (≈ 2.86 µM); MIC [10]: 2 µg/mL (≈ 5.73 µM); MIC50 [11]: 8 µg/mL (≈ 22.9 µM); MIC [11]: > 8 µg/mL; MIC50 [12]: > 8 µg/mL; MIC [12]: > 8 µg/mL; MIC50 [13]: 0.25 µg/mL (≈ 0.716 µM); MIC [13]: > 8 µg/mL; MIC [14]: 0.543 µM (≈ 0.19 µg/mL); MIC50 [15]: 0.154 µM (≈ 0.0538 µg/mL) |
